# Assay results published in PubChem BioAssay AID1259407 (Chemical Carcinogenesis Research Information System (CCRIS), 2018).
# Calls of active or inactive are those of the source. How the calls were made is not given here.
# System: CCRIS mutagenicity, Ames/micronucleus/aberration tests
# Assay: CCRIS mutagenicity studies
smiles,measurement,setting,value
Nc1ccc(-c2ccccc2)cc1,mutagenic call,"Test System: AMES SALMONELLA TYPHIMURIUM, Strain/Indicator: TA100, Metabolic Activation: TOBACCO CELL-FREE TXIMX, Method: PREINCUBATION",active; positive
same,mutagenic call,"Test System: AMES SALMONELLA TYPHIMURIUM, Strain/Indicator: TA1535, Metabolic Activation: NONE, Method: STANDARD PLATE",inactive; negative
same,mutagenic call,"Test System: AMES SALMONELLA TYPHIMURIUM, Strain/Indicator: TA1537, Metabolic Activation: RAT, LIVER, S-9, AROCLOR 1254, Method: STANDARD PLATE",active; positive
same,mutagenic call,"Test System: AMES SALMONELLA TYPHIMURIUM, Strain/Indicator: TA1538, Metabolic Activation: GUINEA PIG, LIVER, INTACT HEPATOCYTES, Method: PREINCUBATION",active; positive
same,mutagenic call,"Test System: AMES SALMONELLA TYPHIMURIUM, Strain/Indicator: TA1538, Metabolic Activation: GUINEA PIG, LIVER, S-9, ACETYL COENZYME A, Method: PREINCUBATION",active; positive
same,mutagenic call,"Test System: AMES SALMONELLA TYPHIMURIUM, Strain/Indicator: TA1538, Metabolic Activation: GUINEA PIG, LIVER, S-9, Method: PREINCUBATION",active; positive
same,mutagenic call,"Test System: AMES SALMONELLA TYPHIMURIUM, Strain/Indicator: TA1538, Metabolic Activation: HAMSTER, LIVER, INTACT HEPATOCYTES, Method: PREINCUBATION",inactive; negative
same,mutagenic call,"Test System: AMES SALMONELLA TYPHIMURIUM, Strain/Indicator: TA1538, Metabolic Activation: HAMSTER, LIVER, S-9, ACETYL COENZYME A, Method: PREINCUBATION",active; positive
same,mutagenic call,"Test System: AMES SALMONELLA TYPHIMURIUM, Strain/Indicator: TA1538, Metabolic Activation: HAMSTER, LIVER, S-9, Method: PREINCUBATION",active; positive
same,mutagenic call,"Test System: AMES SALMONELLA TYPHIMURIUM, Strain/Indicator: TA1538, Metabolic Activation: RAT, LIVER, INTACT HEPATOCYTES, Method: PREINCUBATION",active; positive
same,mutagenic call,"Test System: AMES SALMONELLA TYPHIMURIUM, Strain/Indicator: TA1538, Metabolic Activation: RAT, LIVER, S-9, ACETYL COENZYME A, Method: PREINCUBATION",active; positive
same,mutagenic call,"Test System: AMES SALMONELLA TYPHIMURIUM, Strain/Indicator: TA1538, Metabolic Activation: RAT, LIVER, S-9, AROCLOR 1254, Method: STANDARD PLATE",active; positive
same,mutagenic call,"Test System: AMES SALMONELLA TYPHIMURIUM, Strain/Indicator: TA1538, Metabolic Activation: RAT, LIVER, S-9, KC500 OR PHENOBARBITAL, Method: LIQUID SUSPENSION",active; positive
same,mutagenic call,"Test System: AMES SALMONELLA TYPHIMURIUM, Strain/Indicator: TA1538, Metabolic Activation: RAT, LIVER, S-9, PHENOBARBITAL, Method: STANDARD PLATE",active; positive
same,mutagenic call,"Test System: AMES SALMONELLA TYPHIMURIUM, Strain/Indicator: TA1538, Metabolic Activation: RAT, LIVER, S-9, Method: PREINCUBATION",active; positive
same,mutagenic call,"Test System: AMES SALMONELLA TYPHIMURIUM, Strain/Indicator: YG1021, Metabolic Activation: TOBACCO CELL-FREE TXIMX, Method: PREINCUBATION",active; positive
same,mutagenic call,"Test System: AMES SALMONELLA TYPHIMURIUM, Strain/Indicator: YG1021, Metabolic Activation: TOBACCO TX1 CELLS, Method: PREINCUBATION",active; positive
same,mutagenic call,"Test System: AMES SALMONELLA TYPHIMURIUM, Strain/Indicator: YG1024, Metabolic Activation: HUMAN, UROEPITHELIAL CELL, MICROSOMES, Method: PREINCUBATION",active; positive
same,mutagenic call,"Test System: AMES SALMONELLA TYPHIMURIUM, Strain/Indicator: YG1024, Metabolic Activation: PLANT CELLS, Method: PREINCUBATION",active; positive
same,mutagenic call,"Test System: AMES SALMONELLA TYPHIMURIUM, Strain/Indicator: YG1024, Metabolic Activation: TOBACCO CELL-FREE EXTRACT, Method: PREINCUBATION",active; positive
same,mutagenic call,"Test System: AMES SALMONELLA TYPHIMURIUM, Strain/Indicator: YG1024, Metabolic Activation: TOBACCO CELL-FREE TXIMX, Method: PREINCUBATION",active; positive
same,mutagenic call,"Test System: AMES SALMONELLA TYPHIMURIUM, Strain/Indicator: YG1024, Metabolic Activation: TOBACCO TX1 CELLS, Method: PREINCUBATION",active; positive
same,mutagenic call,"Test System: AMES SALMONELLA TYPHIMURIUM, Strain/Indicator: YG1026, Metabolic Activation: TOBACCO CELL-FREE TXIMX, Method: PREINCUBATION",active; positive
same,mutagenic call,"Test System: AMES SALMONELLA TYPHIMURIUM, Strain/Indicator: YG1026, Metabolic Activation: TOBACCO TX1 CELLS, Method: PREINCUBATION",inactive; negative
same,mutagenic call,"Test System: AMES SALMONELLA TYPHIMURIUM, Strain/Indicator: YG1029, Metabolic Activation: MOUSE LIVER S-9, AROCLOR 1254, 10%, Method: PREINCUBATION",active; positive
same,mutagenic call,"Test System: AMES SALMONELLA TYPHIMURIUM, Strain/Indicator: YG1029, Metabolic Activation: RAT LIVER S-9, AROCLOR 1254, 10%, Method: PREINCUBATION",active; positive
same,mutagenic call,"Test System: AMES SALMONELLA TYPHIMURIUM, Strain/Indicator: YG1029, Metabolic Activation: TOBACCO CELL-FREE EXTRACT, Method: PREINCUBATION",active; positive
same,mutagenic call,"Test System: AMES SALMONELLA TYPHIMURIUM, Strain/Indicator: YG1029, Metabolic Activation: TOBACCO CELL-FREE TXIMX, Method: PREINCUBATION",active; positive
same,mutagenic call,"Test System: AMES SALMONELLA TYPHIMURIUM, Strain/Indicator: YG1029, Metabolic Activation: TOBACCO TX1 CELLS, Method: PREINCUBATION",active; positive
same,mutagenic call,"Test System: Ames Salmonella Typhimurium, Strain/Indicator: TA102, Metabolic Activation: None, Method: Preincubation",inactive; negative
same,mutagenic call,"Test System: Ames Salmonella typhimurium, Strain/Indicator: TA102, Metabolic Activation: Rat, liver, S-9, Aroclor 1254, 4%, Method: Preincubation",active; positive
same,mutagenic call,"Test System: CHINESE HAMSTER OVARY, Strain/Indicator: CHO-K1-BH4 (HGPRT), Metabolic Activation: RAT, LIVER, S-9, AROCLOR, Method: SUSPENSION/PLATE",active; positive
same,mutagenic call,"Test System: E. COLI, Strain/Indicator: WP2 UVRA(P), Metabolic Activation: NONE, Method: STANDARD PLATE",inactive; negative
same,mutagenic call,"Test System: E. COLI, Strain/Indicator: WP2 UVRA, Metabolic Activation: NONE, Method: FLUCTUATION TEST",inactive; negative
same,mutagenic call,"Test System: UDS RODENT HEPATOCYTES, Strain/Indicator: THY INCORP (NON-S-PHASE), Method: AUTORADIOGRAPHY",active; positive
